Measurements from patent US20100240605A1, “NOVEL IMMUNOTHERAPY STRATEGY” (priority 2007, published 2010).
Entries after “also recorded” stand apart in the source; their conditions may differ. Read-outs that look alike come from different tables or passages of the source.

Experiments:
[1] = molecular target: T1, synthetic human IP-10/CXCL10 (Homo sapiens, UniProt P02778); assay: Chemokine binding in solution, gel filtration chromatography; details: no separate IP-10 result printed
T1 sequence (P02778 22-98): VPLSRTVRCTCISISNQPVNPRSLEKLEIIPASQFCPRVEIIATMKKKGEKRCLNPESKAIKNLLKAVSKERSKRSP
From the text: In a fourth example, we used synthetic human IP-10/CXCL10.

B16-F1 cells = assay: B16 melanoma formation in immunocompromised SCID mice; format: in vivo; details: 500 000 B16-F1 cells s.c. on day 0
From the text: We used a similar protocol as above in immunocompromised SCID mice. The SCID mice received s.c. 500 000 B16-F1 cells on day 0.

peritoneal leukocytes = details: for neutrophils among peritoneal cells: 2 mg unfractionated COAM i.p.
Experimental: In a first set of in vivo experiments, 2 mg of COAM (unfractionated, solution of 2 mg in 100 μl sterile pyrogen-free 0.9% NaCl) was injected intraperitoneally per mouse and leukocytes were counted and defined at different times after injection of groups of 3-4 mice.

[2] = molecular target: T2, mouse granulocyte chemotactic protein-2 (mGCP-2) (Mus musculus, UniProt P50228); assay: Chemokine binding in solution, gel filtration chromatography with ELISA of fractions
T2 sequence (P50228 41-132): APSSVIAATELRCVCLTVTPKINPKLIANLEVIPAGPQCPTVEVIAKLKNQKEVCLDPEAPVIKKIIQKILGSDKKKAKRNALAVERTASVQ
Experimental: The COAM preparation was incubated with 50 nanogram mouse GCP-2 and the mixture was analysed by gel filtration chromatography (lower figure) and the presence of GCP-2 in the column fractions was analysed with a sensitive ELISA for mouse GCP-2.
(§1) COAM alone, mGCP-2 or COAM incubated in the presence of mGCP-2 were separated by classical gel filtration chromatography. The elution fractions were collected and the presence of mGCP-2 was determined in the elution fractions by ELISA specific for mGCP-2. […] Since COAM itself is a mixture of polymers with different lengths, we fractioned first COAM in three fractions and then repeated the mGCP-2 binding and chromatographic analysis (as described above) with the high molecular weight COAM (high MW COAM) and mGCP-2. […] This is illustrated in FIG. 2.

[3] = molecular target: T3, human interleukin-8/CXCL8 (IL-8/CXCL8) (Homo sapiens, UniProt P10145); assay: Chemokine binding in solution, gel filtration chromatography; details: 500 ng IL-8/CXCL8; free IL-8 eluted at low molecular masses
T3 sequence (P10145 21-99): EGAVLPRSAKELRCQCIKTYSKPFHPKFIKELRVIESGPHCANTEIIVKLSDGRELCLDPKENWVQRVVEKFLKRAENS
Experimental: as §1
In a second set of experiments human 500 ng interleukin-8/CXCL8 (IL-8/CXCL8) was tested.

[4] = tested on: experimental autoimmune encephalomyelitis; assay: EAE model: clinical course of active EAE; format: in vivo, SJL/J mice
Experimental: FIG. 11: The clinical course of active EAE is attenuated in COAM-treated mice. SJL/J mice were immunized subcutaneously with syngeneic spinal cord homogenate for induction of EAE. They were treated i.p. with 2 mg COAM (filled boxes) or saline (open boxes) on day 0 (A), day 8 (B) or days 0 and 7 (C) post immunization. The clinical course of EAE in these mice is shown as mean daily group score±sem. The disease parameters are given as an insert. Dead animals were scored 6 from the day of death until the end of the study. Arrows point to the days of COAM administration. *p<0.05; **p<0.01 for comparison with saline-treated group; Wilcoxon test or Chi-square test.
(§2) Experimental autoimmune encephalomyelitis was induced in mice (mice were immunized with SCH in CFA) and the groups were randomized. One group was treated with 2 mg COAM intraperitoneally on day 0 and day 7.
SJL/J mice were immunized subcutaneously with syngeneic spinal cord homogenate for induction of EAE. They were treated i.p. with 2 mg COAM (filled boxes) or saline (open boxes) on day 0 (A), day 8 (B) or days 0 and 7 (C) post immunization. The clinical course of EAE in these mice is shown as mean daily group score±sem. The disease parameters are given as an insert. Dead animals were scored 6 from the day of death until the end of the study. […]

[5] = tested on: Moloney Sarcoma Virus-induced tumor; details: IP administration; De Clercq et al. 1972; cited from earlier work
[6] = molecular target: human monocyte chemotactic protein-1/CCL2 (MCP-1/CCL2) (Homo sapiens, UniProt P13500); assay: Chemokine binding in solution, gel filtration chromatography; details: 500 ng MCP-1/CCL2; free MCP-1 eluted at low molecular weight
Experimental: as §1
In a third set, 500 ng human monocyte chemotactic protein-1/CCL2 (MCP-1/CCL2) was tested. Again, free MCP-1 eluted at low molecular weight, compatible with the relative size of MCP-1. […] This is again compatible with its binding to COAM

[7] = tested on: various human and mouse cell lines; assay: Toxicity of the test solution on cell lines; format: cell-based; details: test solution (2 mg COAM in 100 μl 0.9% NaCl)
[8] = tested on: B16-F1 mouse melanoma tumors; assay: Syngeneic B16-F1 melanoma tumors in C57BI6 mice, intratumoral injection; format: in vivo; details: for effect on tumor expansion: single intratumoral dose of 100 μg at day 1 post tumor inoculation, COAM, heparin, saline compared
Experimental: We used B16-F1 mouse melanoma tumors in C57BI6 mice. 0.5 million tumor cells were injected intradermally on day 0 as known in the art. In one experiment, control mice were injected with saline on days 1, 8 and 15. The treated group COAM d1 was injected intratumorally with a single dose of 100 μg COAM on day1. The treated group COAM d1, d8, d15 was injected with 100 μg COAM three times intratumorally. […] In some cases the tumor ulcerated.
At day 18, all tumors were excised and their volumes and weights were measured.
In particular, in the FIGS. 5 A, B, C and D, we used heparin as an additional control. […] Heparin is a polyanion and binds chemokines and mimics heparin sulphate proteoglycans. The experiment was repeated as above with a single intratumoral dose of 100 μg COAM, 100 μg heparin and saline control at day 1 post tumor inoculation.

[9] = tested on: CD11b+Gr-1+ cells (neutrophils); assay: EAE model: neutrophil mobilization to the peritoneal cavity and infiltration of spinal cord and brain; format: in vivo, mice; details: for CD11b^+Gr-1^+ cells in the peritoneal cavity: 2 mg COAM i.p. on day 0 and 7
Experimental: FIG. 9: Mobilization of neutrophils into the peritoneal cavity in response to COAM. Mice were immunized with SCH in CFA and treated with COAM (2 mg) or saline on days 0 and 7. Peritoneal cells were collected on days 5, 9 and 14, or 16 post immunization. […] Data represent three individual experiments taken together; bars represent averages±standard error of the mean of seven or nine mice. (B) Flow cytometric analysis of peritoneal cells of control mice and COAM-treated mice. Cells were stained for the presence of CD11b using FITC-labeled antibodies, and of Gr-1 using PE-labeled antibodies. Numbers indicated on each graph represent percent CD11b^+Gr-1^+ cells. One representative analysis out of 9 is shown.
FIG. 10: Neutrophil infiltration in the spinal cord and brain of COAM-treated mice is reduced compared with saline-treated control mice. […] Data of 3 pooled experiments are shown. Histograms represent averages±SEM. (B) Flow cytometry of cells isolated from the spinal cord and brain on day 16 post immunization of mice treated with COAM (2 mg) or saline on days 0 and 7. Cells were stained for CD11b and Gr-1. Numbers indicated on each graph represent percent CD11b^+Gr-1^+ cells. Each plot represents a staining pattern of pooled cells from 3 mice. Results are representative of three independent experiments with similar results.
as §2
Mice were immunized with SCH in CFA on day 0 and treated i.p. with 2 mg COAM or saline on day 0 and 7. Cells were obtained from the peritoneal cavity of saline- and COAM-treated mice on day 5, 9 and 14, 15 or 16 after immunization. Cells were stained with anti-CD11b-FITC and anti-Gr-1-PE antibodies. The proportion of CD11b^+Gr-1^+ cells is shown. Results represent pooled data from 3 experiments and N indicates the total number of mice examined. *p<0.05 between COAM-treated and saline-treated mice (Mann-Whitney U-test).

[10] = EAE mice, 2 mg COAM i.p. on days 0 and 7

Chain of human monocyte chemotactic protein-1/CCL2 (MCP-1/CCL2) (P13500 24-99): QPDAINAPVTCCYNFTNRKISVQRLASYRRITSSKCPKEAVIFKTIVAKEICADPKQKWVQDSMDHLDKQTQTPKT

chlorite-oxidized oxyamylose [COAM]
chemokine binding, conclusion from results with mGCP-2, IL-8, MCP-1, IP-10 [1]: general chemokine-binding factor
protection against tumors in an immunocompromised host (B16-F1 cells): protects an immunocompromised host against tumors
survival and morbidity of the mice (peritoneal leukocytes; 2 mg unfractionated COAM i.p. per mouse): survived without apparent morbidity
peritoneal cells (peritoneal leukocytes; 2 mg unfractionated COAM i.p. per mouse, within 2 hours, control 126.000 cells): 630.000 cells
neutrophils among peritoneal cells (peritoneal leukocytes; at 4 h): 64.1%
neutrophils among peritoneal cells (peritoneal leukocytes; at 8 h): 70.3%
neutrophils among peritoneal cells (peritoneal leukocytes; within 2 hours, control 2.2%): 18.1%
elution position of mGCP-2 together with COAM (molecular weight range) ([2]; COAM incubated with mGCP-2, mGCP-2 alone eluted at about 10 kilodaltons): > 50 kilodaltons
binding of mGCP-2 ([2]; in solution, gel filtration, ELISA for mouse GCP-2): GCP-2 binds to COAM in solution
elution of interleukin-8 in the presence of COAM [3]: coeluted with COAM at high relative molecular weight
clinical course of active EAE (mean daily group score) ([4]; 2 mg COAM i.p. on day 0, day 8 or days 0 and 7 post immunization, versus saline): attenuated
protection against severe EAE ([4]; two injections of COAM): protect a mammalian host against severe EAE
regression of tumors [5]: not show a regression of tumors
elution of MCP-1 in the presence of COAM [6]: eluted at the position of the high molecular weight of COAM
toxic effect on cell lines [7]: not any toxic effect
additional effect of three injections instead of one injection ([8]; 100 μg intratumorally d1, d8, d15 versus d1 only): No additional effect
overall mean tumor volume and weights as function of time ([8]; COAM-treated groups (100 μg intratumorally d1, or d1, d8, d15) versus saline): significantly reduced
tumor burden with exclusion of ulcerated open tumors ([8]; COAM-treated groups versus saline): significant effect on tumor burden
spleen weight (readout of systemic inflammation) ([8]; after intratumoral injection, compared with saline and heparin): no overt splenomegaly
tumor volume ([8]; single COAM-treated group (COAM d1 only) versus saline, several experiments combined, p<0.015): significantly reduced
tumor weight ([8]; single COAM-treated group (COAM d1 only) versus saline, several experiments combined, p<0.025): significantly reduced
tumor growth ([8]; single dose of 100 μg COAM intratumorally at Day 1 versus saline, 6 COAM-treated and 5 control mice): significant reduction of tumor growth
effect on tumor expansion [8]: lasting and significant effect
tumor volume ([8]; triple treated COAM versus control group, p<0.030): significantly reduced
tumor weight ([8]; triple treated COAM versus control group, p<0.05): significantly reduced
mast cell population in the peritoneal cavity [9, 10]: reduced; also recorded: decrease in mast cells
neutrophil recruitment to the peritoneal cavity [9, 10]: increased neutrophil recruitment; also recorded: specific infiltration of neutrophils
CD11b^+Gr-1^+ cells in the peritoneal cavity ([9]; day 5 p.i., N = 8): 322.78 ± 79.43 (N = 8) ×10^4
CD11b^+Gr-1^+ cells in the peritoneal cavity ([9]; day 9 p.i., N = 9, p<0.05 versus saline): 1210.85 ± 272.05 (N = 9) * ×10^4
CD11b^+Gr-1^+ cells in the peritoneal cavity ([9]; day 14-16 p.i., N = 5, p<0.05 versus saline): 276.66 ± 67.29 (N = 5) * ×10^4
neutrophil infiltration into spinal cord and brain ([9]; day 16 post immunization, 2 mg COAM i.p. on days 0 and 7, versus saline): reduced; also recorded: lower percentage of neutrophils

heparin [reference compound]
effect on tumor expansion [8]: some effect in the early phase
